From the supplement of paper PMC10307832

Key:
Assay in all cases: relative viability (nuclei count vs DMSO), 5 days (fraction); higher = more cells survive
Venetoclax + Bortezomib = compound: CC1(C)CCC(CN2CCN(c3ccc(C(=O)NS(=O)(=O)c4ccc(NCC5CCOCC5)c([N+](=O)[O-])c4)c(Oc4cnc5[nH]ccc5c4)c3)CC2)=C(c2ccc(Cl)cc2)C1 [Venetoclax] + CC(C)C[C@H](NC(=O)[C@H](Cc1ccccc1)NC(=O)c1cnccn1)B(O)O [Bortezomib] (partner 0.002 µM)
In short: (§1)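 Nuclei were stained with Hoechst during a one-step fixation (final 0.05% Triton X-100, 1% formaldehyde, 1 ug/ml Hoechst) carried out 5 days after dosing, then counted on 4× images. The cells, lung cancer lines in 1536-well plates, had been dosed by pin tool the day after seeding with one drug alone or a fixed anchor-drug dose plus five library-drug doses (not always all listed) in √10 steps. Relative viability is the nuclei count in treated wells divided by that in vehicle wells, and each value is the median of duplicate plates.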

Venetoclax + Dasatinib = compound: CC1(C)CCC(CN2CCN(c3ccc(C(=O)NS(=O)(=O)c4ccc(NCC5CCOCC5)c([N+](=O)[O-])c4)c(Oc4cnc5[nH]ccc5c4)c3)CC2)=C(c2ccc(Cl)cc2)C1 [Venetoclax] + Cc1nc(Nc2ncc(C(=O)Nc3c(C)cccc3Cl)s2)cc(N2CCN(CCO)CC2)n1 [Dasatinib] (partner 0.075 µM)
In short: as §1

Selumetinib + Trametinib = compound: Cn1cnc2c(F)c(Nc3ccc(Br)cc3Cl)c(C(=O)NOCCO)cc21 [Selumetinib] + CC(=O)Nc1cccc(-n2c(=O)n(C3CC3)c(=O)c3c(Nc4ccc(I)cc4F)n(C)c(=O)c(C)c32)c1 [Trametinib] (partner 0.02 µM)
In short: as §1

Selumetinib + Foretinib = compound: Cn1cnc2c(F)c(Nc3ccc(Br)cc3Cl)c(C(=O)NOCCO)cc21 [Selumetinib] + COc1cc2c(Oc3ccc(NC(=O)C4(C(=O)Nc5ccc(F)cc5)CC4)cc3F)ccnc2cc1OCCCN1CCOCC1 [Foretinib] (partner 0.25 µM)
In short: as §1

| Cell Line | relative viability (Venetoclax + Bortezomib; first compound 0.01 µM) | relative viability (Venetoclax + Bortezomib; first compound 0.03162 µM) | relative viability (Venetoclax + Bortezomib; first compound 0.1 µM) | relative viability (Venetoclax + Bortezomib; first compound 0.3162 µM) | relative viability (Venetoclax + Bortezomib; first compound 1 µM) | relative viability (Venetoclax + Dasatinib; first compound 0.01 µM) | relative viability (Venetoclax + Dasatinib; first compound 0.03162 µM) | relative viability (Venetoclax + Dasatinib; first compound 0.1 µM) | relative viability (Venetoclax + Dasatinib; first compound 0.3162 µM) | relative viability (Venetoclax + Dasatinib; first compound 1 µM) | relative viability (Selumetinib + Trametinib; first compound 0.02 µM) | relative viability (Selumetinib + Trametinib; first compound 0.06325 µM) | relative viability (Selumetinib + Trametinib; first compound 0.2 µM) | relative viability (Selumetinib + Trametinib; first compound 0.6325 µM) | relative viability (Selumetinib + Foretinib; first compound 0.02 µM) | relative viability (Selumetinib + Foretinib; first compound 0.06325 µM) | relative viability (Selumetinib + Foretinib; first compound 0.2 µM) | relative viability (Selumetinib + Foretinib; first compound 0.6325 µM) |
| --- | --- | --- | --- | --- | --- | --- | --- | --- | --- | --- | --- | --- | --- | --- | --- | --- | --- | --- |
| HOP-62 | 0.886 | 1.17 | 0.746 | 0.665 | 0.625 | 0.557 | 0.582 | 0.616 | 0.709 | 0.625 | 0.372 | 0.358 | 0.404 | 0.332 | 1.06 | 1.02 | 0.807 | 0.504 |
| BEN | 0.61 | 1.06 | 0.868 | 0.837 | 0.749 | 0.323 | 0.362 | 0.374 | 0.34 | 0.303 | 1.06 | 1.07 | 1.14 | 1 | 0.692 | 0.714 | 0.667 | 0.546 |
| NCI-H2405 | 0.956 | 1.09 | 0.94 | 0.982 | 0.907 | 0.179 | 0.199 | 0.186 | 0.197 | 0.197 | 0.643 | 0.638 | 0.669 | 0.615 | 1.05 | 0.983 | 0.909 | 0.545 |
| 201T | 1.11 | 1.03 | 1.11 | 1.09 | 1.06 | 0.545 | 0.551 | 0.614 | 0.501 | 0.488 | 0.777 | 0.698 | 0.723 | 0.735 | 0.977 | 0.978 | 1.05 | 0.874 |
| NCI-H596 | 1.01 | 0.857 | 0.979 | 1.14 | 1.14 | 0.707 | 0.549 | 0.587 | 0.572 | 0.615 | 0.743 | 0.881 | 0.741 | 0.607 | 0.832 | 0.781 | 0.696 | 0.653 |
| NCI-H838 | 0.949 | 0.957 | 0.73 | 0.801 | 0.797 | 0.367 | 0.288 | 0.303 | 0.312 | 0.279 | 0.482 | 0.52 | 0.529 | 0.524 | 0.907 | 0.915 | 0.859 | 0.796 |
| HCC-366 | 0.854 | 1.05 | 1.01 | 0.994 | 0.984 | 0.618 | 0.592 | 0.523 | 0.56 | 0.54 | 0.365 | 0.316 | 0.332 | 0.329 | 0.866 | 0.865 | 0.755 | 0.645 |
| NCI-H1651 | 1.02 | 0.952 | 1.03 | 0.976 | 0.885 | 0.474 | 0.43 | 0.383 | 0.409 | 0.43 | 0.854 | 0.85 | 0.835 | 0.87 | 0.758 | 0.731 | 0.67 | 0.673 |
| LOU-NH91 | 0.487 | 0.477 | 0.558 | 0.473 | 0.456 | 0.511 | 0.642 | 0.532 | 0.58 | 0.495 | 0.773 | 0.761 | 0.818 | 0.824 | 0.87 | 0.859 | 0.834 | 0.738 |
